Reference: PubChem BioAssay AID1918952 (Molecular Pharmacology Branch, DTP, NCI, 2023)

System: LG0703-F948-PDC complex spheroid viability
Experiment: Anticancer human tumor LG0703-F948-PDC patient-derived lung adenocarcinoma cell line growth inhibition
Conditions: for IC50: curve of first compound; for viability, T/C: stronger effect = lower value
Method in brief: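 Multicellular complex spheroids of tumor cells with human endothelial cells (HUVEC) and mesenchymal stem cells; the LSD1 inhibitor iadademstat was combined with standard-of-care or investigational agents. Top concentration at or near clinical Cmax, half-log dilutions; final DMSO ≤0.25%.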

[1] = second compound 0.1 µM, first compound 0.00949 µM
[2] = second compound 0.1 µM, first compound 0.03 µM
[3] = second compound 0.1 µM, first compound 0.0949 µM
[4] = second compound 0.1 µM, first compound 0.3 µM
[5] = second compound 0.316 µM, first compound 0.00949 µM
[6] = second compound 0.316 µM, first compound 0.03 µM
[7] = second compound 0.316 µM, first compound 0.0949 µM
[8] = second compound 0.316 µM, first compound 0.3 µM
[9] = second compound 1 µM, first compound 0.00949 µM
[10] = second compound 1 µM, first compound 0.03 µM
[11] = second compound 1 µM, first compound 0.0949 µM
[12] = second compound 1 µM, first compound 0.3 µM
[13] = second compound 3.16 µM, first compound 0.00949 µM
[14] = second compound 3.16 µM, first compound 0.03 µM
[15] = second compound 3.16 µM, first compound 0.0949 µM
[16] = second compound 3.16 µM, first compound 0.3 µM
[17] = second compound 10 µM, first compound 0.00949 µM
[18] = second compound 10 µM, first compound 0.03 µM
[19] = second compound 10 µM, first compound 0.0949 µM
[20] = second compound 10 µM, first compound 0.3 µM
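Also: spheroids exposed to agents for seven days before readout.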
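For viability, T/C in this document: 100% = DMSO vehicle control wells as normalization base.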

## CCc1c2c(nc3ccc(O)cc13)-c1cc3c(c(=O)n1C2)COC(=O)[C@]3(O)CC + NC1CCC(NC2CC2c2ccccc2)CC1
Second compound 0.1 µM
  IC50: 1.31 nM
Second compound 0.316 µM
  IC50: 1.87 nM
Second compound 1 µM
  IC50: 1.89 nM
Second compound 3.16 µM
  IC50: 3.61 nM
Second compound 10 µM
  IC50: 5.11 nM
Second compound 0.1 µM, first compound 0.000949 µM
  viability, T/C: 55.8%
Second compound 0.1 µM, first compound 0.003 µM
  viability, T/C: 36.4%
[1]
  viability, T/C: 23.9%
[2]
  viability, T/C: 15%
[3]
  viability, T/C: 8.81%
[4]
  viability, T/C: 4.02%
Second compound 0.316 µM, first compound 0.000949 µM
  viability, T/C: 63.7%
Second compound 0.316 µM, first compound 0.003 µM
  viability, T/C: 40.2%
[5]
  viability, T/C: 24.8%
[6]
  viability, T/C: 15.1%
[7]
  viability, T/C: 7.91%
[8]
  viability, T/C: 3.79%
Second compound 1 µM, first compound 0.000949 µM
  viability, T/C: 62.8%
Second compound 1 µM, first compound 0.003 µM
  viability, T/C: 40.8%
[9]
  viability, T/C: 27.6%
[10]
  viability, T/C: 15.9%
[11]
  viability, T/C: 7.93%
[12]
  viability, T/C: 3.95%
Second compound 3.16 µM, first compound 0.000949 µM
  viability, T/C: 64.8%
Second compound 3.16 µM, first compound 0.003 µM
  viability, T/C: 52.5%
[13]
  viability, T/C: 35.3%
[14]
  viability, T/C: 18.1%
[15]
  viability, T/C: 7.91%
[16]
  viability, T/C: 4.52%
Second compound 10 µM, first compound 0.000949 µM
  viability, T/C: 78.8%
Second compound 10 µM, first compound 0.003 µM
  viability, T/C: 59%
[17]
  viability, T/C: 39.6%
[18]
  viability, T/C: 19.9%
[19]
  viability, T/C: 8.18%
[20]
  viability, T/C: 3.7%

## Nc1ccccc1NC(=O)c1ccc(CNC(=O)OCc2cccnc2)cc1 + NC1CCC(NC2CC2c2ccccc2)CC1
Second compound 0.1 µM
  IC50: 118 nM
Second compound 0.316 µM
  IC50: 142 nM
Second compound 1 µM
  IC50: 127 nM
Second compound 3.16 µM
  IC50: 141 nM
Second compound 10 µM
  IC50: 139 nM
[1]
  viability, T/C: 110%
[2]
  viability, T/C: 99.9%
[3]
  viability, T/C: 58.8%
[4]
  viability, T/C: 12.6%
Second compound 0.1 µM, first compound 0.949 µM
  viability, T/C: 1.17%
Second compound 0.1 µM, first compound 3 µM
  viability, T/C: 0.33%
[5]
  viability, T/C: 105%
[6]
  viability, T/C: 93.8%
[7]
  viability, T/C: 70.2%
[8]
  viability, T/C: 14.2%
Second compound 0.316 µM, first compound 0.949 µM
  viability, T/C: 1.51%
Second compound 0.316 µM, first compound 3 µM
  viability, T/C: 0.96%
[9]
  viability, T/C: 87.7%
[10]
  viability, T/C: 94.8%
[11]
  viability, T/C: 59.4%
[12]
  viability, T/C: 17%
Second compound 1 µM, first compound 0.949 µM
  viability, T/C: 1.08%
Second compound 1 µM, first compound 3 µM
  viability, T/C: 0.48%
[13]
  viability, T/C: 112%
[14]
  viability, T/C: 109%
[15]
  viability, T/C: 68.9%
[16]
  viability, T/C: 13.5%
Second compound 3.16 µM, first compound 0.949 µM
  viability, T/C: 0.24%
Second compound 3.16 µM, first compound 3 µM
  viability, T/C: 0.24%
[17]
  viability, T/C: 94.7%
[18]
  viability, T/C: 85.2%
[19]
  viability, T/C: 67.2%
[20]
  viability, T/C: 17%
Second compound 10 µM, first compound 0.949 µM
  viability, T/C: 0.59%
Second compound 10 µM, first compound 3 µM
  viability, T/C: 0.92%

## O=C(c1cc(Cc2n[nH]c(=O)c3ccccc23)ccc1F)N1CCN(C(=O)C2CC2)CC1 + NC1CCC(NC2CC2c2ccccc2)CC1
Second compound 0.1 µM
  IC50: > 10000 nM
Second compound 0.316 µM
  IC50: > 10000 nM
Second compound 1 µM
  IC50: > 10000 nM
Second compound 3.16 µM
  IC50: > 10000 nM
Second compound 10 µM
  IC50: > 10000 nM
Second compound 0.1 µM, first compound 0.0316 µM
  viability, T/C: 101%
Second compound 0.1 µM, first compound 0.1 µM
  viability, T/C: 100%
Second compound 0.1 µM, first compound 0.316 µM
  viability, T/C: 91.5%
Second compound 0.1 µM, first compound 1 µM
  viability, T/C: 99.4%
Second compound 0.1 µM, first compound 3.16 µM
  viability, T/C: 80.9%
Second compound 0.1 µM, first compound 10 µM
  viability, T/C: 76.8%
Second compound 0.316 µM, first compound 0.0316 µM
  viability, T/C: 112%
Second compound 0.316 µM, first compound 0.1 µM
  viability, T/C: 117%
Second compound 0.316 µM, first compound 0.316 µM
  viability, T/C: 106%
Second compound 0.316 µM, first compound 1 µM
  viability, T/C: 89.4%
Second compound 0.316 µM, first compound 3.16 µM
  viability, T/C: 94.3%
Second compound 0.316 µM, first compound 10 µM
  viability, T/C: 84%
Second compound 1 µM, first compound 0.0316 µM
  viability, T/C: 121%
Second compound 1 µM, first compound 0.1 µM
  viability, T/C: 125%
Second compound 1 µM, first compound 0.316 µM
  viability, T/C: 123%
Second compound 1 µM, first compound 1 µM
  viability, T/C: 130%
Second compound 1 µM, first compound 3.16 µM
  viability, T/C: 95.3%
Second compound 1 µM, first compound 10 µM
  viability, T/C: 98.2%
Second compound 3.16 µM, first compound 0.0316 µM
  viability, T/C: 116%
Second compound 3.16 µM, first compound 0.1 µM
  viability, T/C: 110%
Second compound 3.16 µM, first compound 0.316 µM
  viability, T/C: 113%
Second compound 3.16 µM, first compound 1 µM
  viability, T/C: 107%
Second compound 3.16 µM, first compound 3.16 µM
  viability, T/C: 112%
Second compound 3.16 µM, first compound 10 µM
  viability, T/C: 106%
Second compound 10 µM, first compound 0.0316 µM
  viability, T/C: 109%
Second compound 10 µM, first compound 0.1 µM
  viability, T/C: 106%
Second compound 10 µM, first compound 0.316 µM
  viability, T/C: 103%
Second compound 10 µM, first compound 1 µM
  viability, T/C: 109%
Second compound 10 µM, first compound 3.16 µM
  viability, T/C: 94%
Second compound 10 µM, first compound 10 µM
  viability, T/C: 84%
